In PMC3834340, “X-Ray Crystal Structure of the Ancestral 3-Ketosteroid Receptor–Progesterone–Mifepristone Complex Shows Mifepristone Bound at the Coactivator Binding Interface” (PLoS ONE, 2013) one finds EC50 data, which are given here for two compounds.

As a reminder, the EC50 is the concentration giving half of the maximal effect.

The test system of experiment [1] is T1, ancestral 3-ketosteroid receptor (ancSR2).
T1 construct: ancSR2 LBD, residues 2 through 248 modeled
Description: X-ray crystal structure at […] Å (ternary complex, surface sites); the EC50 is from a separate CHO-K1 luciferase reporter assay and is not assigned to these sites. The experiment is classed as cell-based, synthetic construct. (In general: A reporter such as luciferase makes a cellular process visible.)

The test system is the same in experiment [2]. The experiment can be described thus: X-ray crystal structure at […] Å; the EC50 is from a Gal4-DBD–LBD luciferase reporter assay in CHO-K1 cells. The experiment is classed as cell-based, synthetic construct.

On to `CC#C[C@]1(O)CC[C@H]2[C@@H]3CCC4=CC(=O)CCC4=C3[C@@H](c3ccc(N(C)C)cc3)C[C@@]21C` [mifepristone], for which the EC50 in experiment [1] is 56 ± 1.2 nM. As for `CC(=O)[C@H]1CC[C@H]2[C@@H]3CCC4=CC(=O)CC[C@]4(C)[C@H]3CC[C@]12C` [progesterone], in experiment [2], the response was half-maximal at 0.078 ± 0.0017 nM (EC50).
